Results: the kinase profiling compilation of Christmann-Franck et al. (2016)

How the values were obtained:
Assay in all cases: KINOMEscan competition binding
Settings in all cases: compound 10.0 µM
CDK17 (human) = CDK17 (human) (UniProt Q00537)
SRPK2 (human) = SRPK2 (human) (UniProt P78362)
MARK4 (human) = MARK4 (human) (UniProt Q96L34)
DAPK1 (human) = DAPK1 (human) (UniProt P53355)
MAPK7 (human) = MAPK7 (human) (UniProt Q13164)
HIPK4 (human) = HIPK4 (human) (UniProt Q8NE63)
EPHA3 (human) = EPHA3 (human) (UniProt P29320)
EIF2AK1 (human) = EIF2AK1 (human) (UniProt Q9BQI3)
MAST1 (human) = MAST1 (human) (UniProt Q9Y2H9)
TRPM6 (human) = TRPM6 (human) (UniProt Q9BX84)
PIP4K2C (human) = PIP4K2C (human) (UniProt Q8TBX8)
DCLK2 (human) = DCLK2 (human) (UniProt Q8N568)
PIM2 (human) = PIM2 (human) (UniProt Q9P1W9)
MAPK4 (human) = MAPK4 (human) (UniProt P31152)
NEK9 (human) = NEK9 (human) (UniProt Q8TD19)
CSNK1A1L (human) = CSNK1A1L (human) (UniProt Q8N752)
PRKCE (human) = PRKCE (human) (UniProt Q02156)
CAMK2B (human) = CAMK2B (human) (UniProt Q13554)
PAK2 (human) = PAK2 (human) (UniProt Q13177)
GRK4 (human) = GRK4 (human) (UniProt P32298)
NEK5 (human) = NEK5 (human) (UniProt Q6P3R8)
CHEK1 (human) = CHEK1 (human) (UniProt O14757)
LYN (human) = LYN (human) (UniProt P07948)
PAK3 (human) = PAK3 (human) (UniProt O75914)
HIPK2 (human) = HIPK2 (human) (UniProt Q9H2X6)
MYO3A (human) = MYO3A (human) (UniProt Q8NEV4)
ICK (human) = ICK (human) (UniProt Q9UPZ9)
EPHB3 (human) = EPHB3 (human) (UniProt P54753)
PIK3CD (human) = PIK3CD (human) (UniProt O00329)
MAP2K4 (human) = MAP2K4 (human) (UniProt P45985)
MAP3K15 (human) = MAP3K15 (human) (UniProt Q6ZN16)
CSNK2A1 (human) = CSNK2A1 (human) (UniProt P68400)
TAOK1 (human) = TAOK1 (human) (UniProt Q7L7X3)
DCLK3 (human) = DCLK3 (human) (UniProt Q9C098)
CDKL2 (human) = CDKL2 (human) (UniProt Q92772)
EPHB1 (human) = EPHB1 (human) (UniProt P54762)
RPS6KA6 KD2 (human) = RPS6KA6 KD2 (human) (UniProt Q9UK32)
MAP3K1 (human) = MAP3K1 (human) (UniProt Q13233)
TAOK2 (human) = TAOK2 (human) (UniProt Q9UL54)
ADCK4 (human) = ADCK4 (human) (UniProt Q96D53)

Chain of CSNK2A1 (human) (P68400 whole entry, looked up): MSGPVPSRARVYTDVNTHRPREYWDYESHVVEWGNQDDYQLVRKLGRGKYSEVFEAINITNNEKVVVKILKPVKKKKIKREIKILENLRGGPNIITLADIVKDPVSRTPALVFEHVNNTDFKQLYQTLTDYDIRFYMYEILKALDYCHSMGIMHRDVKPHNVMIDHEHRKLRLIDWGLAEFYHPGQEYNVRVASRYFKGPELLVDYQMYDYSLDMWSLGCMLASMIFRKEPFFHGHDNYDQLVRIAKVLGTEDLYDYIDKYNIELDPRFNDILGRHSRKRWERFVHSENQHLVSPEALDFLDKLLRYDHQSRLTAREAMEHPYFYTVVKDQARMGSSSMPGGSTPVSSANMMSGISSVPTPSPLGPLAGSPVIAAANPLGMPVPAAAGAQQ
Chain of EIF2AK1 (human) (Q9BQI3 whole entry, looked up): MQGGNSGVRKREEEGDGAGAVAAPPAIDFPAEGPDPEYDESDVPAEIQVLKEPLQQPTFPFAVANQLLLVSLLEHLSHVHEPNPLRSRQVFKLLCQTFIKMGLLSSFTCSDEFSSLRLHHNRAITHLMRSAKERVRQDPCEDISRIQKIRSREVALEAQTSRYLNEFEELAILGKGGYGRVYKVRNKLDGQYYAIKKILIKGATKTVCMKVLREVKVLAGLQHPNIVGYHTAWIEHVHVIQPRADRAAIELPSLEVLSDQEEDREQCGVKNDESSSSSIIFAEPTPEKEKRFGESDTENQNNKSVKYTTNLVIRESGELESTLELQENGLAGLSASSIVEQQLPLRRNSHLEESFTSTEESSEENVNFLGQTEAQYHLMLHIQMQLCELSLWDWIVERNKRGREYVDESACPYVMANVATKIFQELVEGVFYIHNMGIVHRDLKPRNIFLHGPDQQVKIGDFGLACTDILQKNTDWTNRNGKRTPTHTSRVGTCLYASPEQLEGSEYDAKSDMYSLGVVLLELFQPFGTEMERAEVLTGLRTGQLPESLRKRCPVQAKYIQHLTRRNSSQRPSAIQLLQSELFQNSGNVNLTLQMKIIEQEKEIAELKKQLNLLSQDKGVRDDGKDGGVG
Chain of MAP3K1 (human) (Q13233 whole entry, looked up): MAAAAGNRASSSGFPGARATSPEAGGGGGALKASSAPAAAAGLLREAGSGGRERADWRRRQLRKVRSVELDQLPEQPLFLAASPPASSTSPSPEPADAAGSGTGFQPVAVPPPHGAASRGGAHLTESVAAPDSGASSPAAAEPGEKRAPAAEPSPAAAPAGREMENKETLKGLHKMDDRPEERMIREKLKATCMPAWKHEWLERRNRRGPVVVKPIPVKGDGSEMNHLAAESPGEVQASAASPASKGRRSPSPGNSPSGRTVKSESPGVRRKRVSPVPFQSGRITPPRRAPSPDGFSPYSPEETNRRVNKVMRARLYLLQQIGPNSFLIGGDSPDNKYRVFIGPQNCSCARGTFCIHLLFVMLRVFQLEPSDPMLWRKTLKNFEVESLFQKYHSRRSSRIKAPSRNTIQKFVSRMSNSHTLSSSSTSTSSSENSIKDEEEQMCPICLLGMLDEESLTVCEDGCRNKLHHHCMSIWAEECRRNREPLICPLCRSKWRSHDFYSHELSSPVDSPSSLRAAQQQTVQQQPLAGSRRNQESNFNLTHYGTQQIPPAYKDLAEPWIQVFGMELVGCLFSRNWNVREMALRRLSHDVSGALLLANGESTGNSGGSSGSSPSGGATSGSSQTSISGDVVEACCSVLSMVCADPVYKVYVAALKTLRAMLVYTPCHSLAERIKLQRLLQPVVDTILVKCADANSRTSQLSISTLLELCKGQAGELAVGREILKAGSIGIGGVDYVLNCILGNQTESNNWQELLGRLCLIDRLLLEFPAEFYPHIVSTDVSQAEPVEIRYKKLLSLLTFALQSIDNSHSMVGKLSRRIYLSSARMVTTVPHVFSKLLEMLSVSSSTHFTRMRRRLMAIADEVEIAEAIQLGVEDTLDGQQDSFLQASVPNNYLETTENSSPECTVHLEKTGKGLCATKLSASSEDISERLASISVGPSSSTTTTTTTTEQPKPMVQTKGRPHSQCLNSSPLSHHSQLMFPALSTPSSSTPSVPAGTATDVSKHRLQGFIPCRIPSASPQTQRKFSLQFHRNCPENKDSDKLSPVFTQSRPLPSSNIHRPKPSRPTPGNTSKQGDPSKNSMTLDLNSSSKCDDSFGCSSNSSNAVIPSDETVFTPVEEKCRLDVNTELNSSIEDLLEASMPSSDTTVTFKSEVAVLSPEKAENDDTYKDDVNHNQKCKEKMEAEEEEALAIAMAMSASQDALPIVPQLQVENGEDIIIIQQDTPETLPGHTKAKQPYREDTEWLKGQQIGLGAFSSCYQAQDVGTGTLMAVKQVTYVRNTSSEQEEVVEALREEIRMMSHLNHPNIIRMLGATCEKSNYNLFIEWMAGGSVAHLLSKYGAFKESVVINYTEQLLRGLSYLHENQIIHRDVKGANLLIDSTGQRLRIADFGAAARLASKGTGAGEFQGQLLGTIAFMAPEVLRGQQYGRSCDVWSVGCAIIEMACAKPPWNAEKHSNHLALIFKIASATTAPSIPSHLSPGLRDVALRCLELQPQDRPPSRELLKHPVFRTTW
Chain of TRPM6 (human) (Q9BX84 whole entry, looked up): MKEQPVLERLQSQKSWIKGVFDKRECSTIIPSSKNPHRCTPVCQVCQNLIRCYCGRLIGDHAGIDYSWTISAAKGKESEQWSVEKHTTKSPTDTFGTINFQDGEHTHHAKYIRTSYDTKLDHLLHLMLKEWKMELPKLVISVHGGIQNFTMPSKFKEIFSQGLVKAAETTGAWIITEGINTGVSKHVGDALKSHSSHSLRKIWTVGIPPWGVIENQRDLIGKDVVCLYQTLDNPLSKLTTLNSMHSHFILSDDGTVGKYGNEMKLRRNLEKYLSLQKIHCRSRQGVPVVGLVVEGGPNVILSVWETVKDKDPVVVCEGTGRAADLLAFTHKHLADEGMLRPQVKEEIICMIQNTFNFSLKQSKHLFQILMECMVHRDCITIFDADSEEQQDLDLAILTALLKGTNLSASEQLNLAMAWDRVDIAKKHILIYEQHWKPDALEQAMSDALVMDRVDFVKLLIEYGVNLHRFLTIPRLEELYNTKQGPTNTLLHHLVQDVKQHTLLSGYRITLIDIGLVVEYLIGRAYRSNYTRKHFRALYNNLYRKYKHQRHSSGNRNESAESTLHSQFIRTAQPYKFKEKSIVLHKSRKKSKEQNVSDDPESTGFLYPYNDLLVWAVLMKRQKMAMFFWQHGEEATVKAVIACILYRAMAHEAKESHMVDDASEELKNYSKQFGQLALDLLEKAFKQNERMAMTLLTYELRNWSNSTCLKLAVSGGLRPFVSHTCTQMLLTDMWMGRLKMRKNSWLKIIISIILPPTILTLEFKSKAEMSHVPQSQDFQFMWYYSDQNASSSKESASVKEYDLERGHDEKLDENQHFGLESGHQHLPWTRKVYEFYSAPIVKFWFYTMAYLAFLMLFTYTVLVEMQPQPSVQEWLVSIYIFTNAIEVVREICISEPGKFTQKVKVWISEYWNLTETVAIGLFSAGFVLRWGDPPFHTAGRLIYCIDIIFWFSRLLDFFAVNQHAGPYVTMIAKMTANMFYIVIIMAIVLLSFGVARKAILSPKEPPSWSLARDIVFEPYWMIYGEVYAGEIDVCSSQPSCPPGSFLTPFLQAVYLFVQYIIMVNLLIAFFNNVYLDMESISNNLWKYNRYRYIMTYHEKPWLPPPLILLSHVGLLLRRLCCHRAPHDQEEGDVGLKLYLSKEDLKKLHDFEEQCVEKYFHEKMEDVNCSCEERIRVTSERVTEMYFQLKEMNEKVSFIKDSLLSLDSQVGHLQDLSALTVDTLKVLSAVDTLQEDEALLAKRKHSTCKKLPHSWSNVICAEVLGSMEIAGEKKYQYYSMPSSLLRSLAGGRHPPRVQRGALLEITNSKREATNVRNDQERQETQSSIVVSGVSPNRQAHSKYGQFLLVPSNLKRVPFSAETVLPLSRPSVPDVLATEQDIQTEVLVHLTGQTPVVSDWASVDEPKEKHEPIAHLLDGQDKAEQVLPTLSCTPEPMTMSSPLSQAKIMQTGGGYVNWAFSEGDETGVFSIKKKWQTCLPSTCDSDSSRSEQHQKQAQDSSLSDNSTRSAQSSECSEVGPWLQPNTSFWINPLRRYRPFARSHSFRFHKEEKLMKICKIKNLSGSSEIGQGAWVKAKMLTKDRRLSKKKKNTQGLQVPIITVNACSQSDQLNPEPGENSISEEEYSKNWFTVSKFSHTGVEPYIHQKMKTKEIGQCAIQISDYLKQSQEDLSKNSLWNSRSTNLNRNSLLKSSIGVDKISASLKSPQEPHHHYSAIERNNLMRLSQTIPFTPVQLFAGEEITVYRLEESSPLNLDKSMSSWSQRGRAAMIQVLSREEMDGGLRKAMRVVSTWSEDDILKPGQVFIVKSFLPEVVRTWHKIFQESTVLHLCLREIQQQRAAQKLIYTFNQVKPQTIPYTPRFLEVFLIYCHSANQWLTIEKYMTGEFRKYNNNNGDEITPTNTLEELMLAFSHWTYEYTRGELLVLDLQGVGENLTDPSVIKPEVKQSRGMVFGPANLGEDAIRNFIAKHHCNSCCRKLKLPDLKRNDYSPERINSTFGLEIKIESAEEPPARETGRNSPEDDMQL
Chain of PAK2 (human) (Q13177 whole entry, looked up): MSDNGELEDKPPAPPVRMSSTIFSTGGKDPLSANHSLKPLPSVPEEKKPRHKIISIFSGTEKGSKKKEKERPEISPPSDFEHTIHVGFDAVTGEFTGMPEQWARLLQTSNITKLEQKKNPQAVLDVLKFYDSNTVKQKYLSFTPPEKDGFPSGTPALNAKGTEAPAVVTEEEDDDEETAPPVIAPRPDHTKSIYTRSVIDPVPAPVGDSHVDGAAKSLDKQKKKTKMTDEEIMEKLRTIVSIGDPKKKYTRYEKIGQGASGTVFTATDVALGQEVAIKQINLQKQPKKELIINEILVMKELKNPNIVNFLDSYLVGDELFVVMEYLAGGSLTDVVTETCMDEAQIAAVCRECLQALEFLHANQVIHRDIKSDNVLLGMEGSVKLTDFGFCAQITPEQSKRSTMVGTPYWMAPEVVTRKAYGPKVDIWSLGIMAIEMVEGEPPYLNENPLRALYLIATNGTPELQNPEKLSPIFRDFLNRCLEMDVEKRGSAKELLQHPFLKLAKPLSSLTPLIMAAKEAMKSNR

| SMILES | kinase still bound, per cent of control (CDK17 (human)) | kinase still bound, per cent of control (SRPK2 (human)) | kinase still bound, per cent of control (MARK4 (human)) | kinase still bound, per cent of control (MAPK7 (human)) | kinase still bound, per cent of control (HIPK4 (human)) | kinase still bound, per cent of control (EPHA3 (human)) | kinase still bound, per cent of control (EIF2AK1 (human)) | kinase still bound, per cent of control (MAST1 (human)) | kinase still bound, per cent of control (TRPM6 (human)) | kinase still bound, per cent of control (PIP4K2C (human)) | kinase still bound, per cent of control (DCLK2 (human)) | kinase still bound, per cent of control (PIM2 (human)) | kinase still bound, per cent of control (MAPK4 (human)) | kinase still bound, per cent of control (NEK9 (human)) | kinase still bound, per cent of control (CSNK1A1L (human)) | kinase still bound, per cent of control (PRKCE (human)) | kinase still bound, per cent of control (CAMK2B (human)) | kinase still bound, per cent of control (PAK2 (human)) | kinase still bound, per cent of control (GRK4 (human)) | kinase still bound, per cent of control (NEK5 (human)) | other results |
| --- | --- | --- | --- | --- | --- | --- | --- | --- | --- | --- | --- | --- | --- | --- | --- | --- | --- | --- | --- | --- | --- |
| CCN1CCN(Cc2ccc(NC(=O)c3ccc(C)c(/C=C/c4cnc5[nH]ccc5c4OC)c3)cc2C(F)(F)F)CC1 | 61% | 28% | 100% | 73% | 5.5% | 4.8% | 78% | 100% | 100% | 100% | 100% | 100% | 100% | 8.4% | 100% | 75% | 100% | 100% | 8.2% | 4.3% | kinase still bound, per cent of control (DAPK1 (human)): 100%; kinase still bound, per cent of control (CHEK1 (human)): 28%; kinase still bound, per cent of control (LYN (human)): 0%; kinase still bound, per cent of control (PAK3 (human)): 6%; kinase still bound, per cent of control (HIPK2 (human)): 41%; kinase still bound, per cent of control (MYO3A (human)): 28%; kinase still bound, per cent of control (ICK (human)): 99%; kinase still bound, per cent of control (EPHB3 (human)): 4.7%; kinase still bound, per cent of control (PIK3CD (human)): 78%; kinase still bound, per cent of control (MAP2K4 (human)): 76%; kinase still bound, per cent of control (MAP3K15 (human)): 100%; kinase still bound, per cent of control (CSNK2A1 (human)): 90%; kinase still bound, per cent of control (TAOK1 (human)): 0.75%; kinase still bound, per cent of control (DCLK3 (human)): 3.2%; kinase still bound, per cent of control (CDKL2 (human)): 1.6%; kinase still bound, per cent of control (EPHB1 (human)): 0.45%; kinase still bound, per cent of control (RPS6KA6 KD2 (human)): 15%; kinase still bound, per cent of control (MAP3K1 (human)): 71%; kinase still bound, per cent of control (TAOK2 (human)): 0.5%; kinase still bound, per cent of control (ADCK4 (human)): 100% |
| CCCS(=O)(=O)Nc1ccc(F)c(C(=O)c2c[nH]c3ncc(Cl)cc23)c1F | 56% | 100% | 72% | 65% | 34% | 65% | 32% | 100% | 99% | 100% | 61% | 80% | 100% | 66% | 100% | 100% | 63% | 37% | 100% | 100% | kinase still bound, per cent of control (DAPK1 (human)): 89%; kinase still bound, per cent of control (CHEK1 (human)): 82%; kinase still bound, per cent of control (LYN (human)): 24%; kinase still bound, per cent of control (PAK3 (human)): 34%; kinase still bound, per cent of control (HIPK2 (human)): 20%; kinase still bound, per cent of control (MYO3A (human)): 35%; kinase still bound, per cent of control (ICK (human)): 63%; kinase still bound, per cent of control (EPHB3 (human)): 100%; kinase still bound, per cent of control (PIK3CD (human)): 84%; kinase still bound, per cent of control (MAP2K4 (human)): 6.6%; kinase still bound, per cent of control (MAP3K15 (human)): 74%; kinase still bound, per cent of control (CSNK2A1 (human)): 18%; kinase still bound, per cent of control (TAOK1 (human)): 52%; kinase still bound, per cent of control (DCLK3 (human)): 26%; kinase still bound, per cent of control (CDKL2 (human)): 49%; kinase still bound, per cent of control (EPHB1 (human)): 100%; kinase still bound, per cent of control (RPS6KA6 KD2 (human)): 98%; kinase still bound, per cent of control (MAP3K1 (human)): 73%; kinase still bound, per cent of control (TAOK2 (human)): 43%; kinase still bound, per cent of control (ADCK4 (human)): 100% |
| CC(=O)c1c(C)c2cnc(Nc3ccc(N4CCNCC4)cn3)nc2n(C2CCCC2)c1=O | 2.7% | 68% | 63% | 0.65% | 6% | 66% | 32% | 5% | 91% | 1% | 2.9% | 52% | 87% | 76% | 62% | 67% | 4.4% | 93% | 26% | 27% | kinase still bound, per cent of control (CHEK1 (human)): 20%; kinase still bound, per cent of control (PAK3 (human)): 20%; kinase still bound, per cent of control (HIPK2 (human)): 0.25%; kinase still bound, per cent of control (MYO3A (human)): 58%; kinase still bound, per cent of control (ICK (human)): 38%; kinase still bound, per cent of control (EPHB3 (human)): 91%; kinase still bound, per cent of control (PIK3CD (human)): 28%; kinase still bound, per cent of control (MAP3K15 (human)): 11%; kinase still bound, per cent of control (CSNK2A1 (human)): 0.05%; kinase still bound, per cent of control (TAOK1 (human)): 11%; kinase still bound, per cent of control (DCLK3 (human)): 9.6%; kinase still bound, per cent of control (CDKL2 (human)): 6.8%; kinase still bound, per cent of control (RPS6KA6 KD2 (human)): 38%; kinase still bound, per cent of control (MAP3K1 (human)): 87%; kinase still bound, per cent of control (TAOK2 (human)): 30%; kinase still bound, per cent of control (ADCK4 (human)): 53% |
